{"source": "ChEMBL document CHEMBL5543164", "about": "(J Med Chem, 2024)", "key": {"[1]": {"target": "Phosphatidylinositol 4,5-bisphosphate 3-kinase catalytic subunit gamma isoform (Homo sapiens, UniProt P48736)", "sequence (P48736 whole entry, canonical isoform)": "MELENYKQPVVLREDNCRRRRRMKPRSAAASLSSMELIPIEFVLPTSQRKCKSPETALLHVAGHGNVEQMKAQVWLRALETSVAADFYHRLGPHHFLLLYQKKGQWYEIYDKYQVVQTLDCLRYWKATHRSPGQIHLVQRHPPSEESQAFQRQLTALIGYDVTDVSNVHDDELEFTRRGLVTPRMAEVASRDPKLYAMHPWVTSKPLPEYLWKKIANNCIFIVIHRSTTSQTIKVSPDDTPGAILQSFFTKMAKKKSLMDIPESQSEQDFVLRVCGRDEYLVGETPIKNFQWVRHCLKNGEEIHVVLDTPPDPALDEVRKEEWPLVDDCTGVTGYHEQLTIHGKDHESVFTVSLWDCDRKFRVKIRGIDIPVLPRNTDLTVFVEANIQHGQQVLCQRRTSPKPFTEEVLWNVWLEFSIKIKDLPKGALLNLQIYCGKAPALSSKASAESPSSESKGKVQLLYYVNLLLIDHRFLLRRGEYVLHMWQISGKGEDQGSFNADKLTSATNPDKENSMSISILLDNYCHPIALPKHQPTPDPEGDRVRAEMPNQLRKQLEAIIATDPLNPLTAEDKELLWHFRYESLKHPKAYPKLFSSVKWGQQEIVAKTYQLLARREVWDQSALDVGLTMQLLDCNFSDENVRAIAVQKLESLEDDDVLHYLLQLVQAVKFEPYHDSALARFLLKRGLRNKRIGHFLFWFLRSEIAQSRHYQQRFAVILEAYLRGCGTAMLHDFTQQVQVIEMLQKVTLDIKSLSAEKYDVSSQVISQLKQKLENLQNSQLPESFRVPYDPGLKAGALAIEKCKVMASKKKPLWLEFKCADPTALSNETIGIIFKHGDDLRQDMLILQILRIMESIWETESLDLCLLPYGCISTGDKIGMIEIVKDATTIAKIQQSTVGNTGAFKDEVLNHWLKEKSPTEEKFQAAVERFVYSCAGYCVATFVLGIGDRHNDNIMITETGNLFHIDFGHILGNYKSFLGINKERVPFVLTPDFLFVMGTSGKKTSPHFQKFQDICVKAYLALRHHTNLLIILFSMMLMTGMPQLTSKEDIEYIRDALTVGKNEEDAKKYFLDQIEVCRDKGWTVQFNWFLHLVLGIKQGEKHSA", "assay": "Inhibition of PI3Kgamma (unknown origin) by ADP-glo plus luminescence assay"}, "[2]": {"target": "T1, Cytochrome P450 1A2 (Homo sapiens, UniProt P05177)", "T1 sequence (P05177 whole entry)": "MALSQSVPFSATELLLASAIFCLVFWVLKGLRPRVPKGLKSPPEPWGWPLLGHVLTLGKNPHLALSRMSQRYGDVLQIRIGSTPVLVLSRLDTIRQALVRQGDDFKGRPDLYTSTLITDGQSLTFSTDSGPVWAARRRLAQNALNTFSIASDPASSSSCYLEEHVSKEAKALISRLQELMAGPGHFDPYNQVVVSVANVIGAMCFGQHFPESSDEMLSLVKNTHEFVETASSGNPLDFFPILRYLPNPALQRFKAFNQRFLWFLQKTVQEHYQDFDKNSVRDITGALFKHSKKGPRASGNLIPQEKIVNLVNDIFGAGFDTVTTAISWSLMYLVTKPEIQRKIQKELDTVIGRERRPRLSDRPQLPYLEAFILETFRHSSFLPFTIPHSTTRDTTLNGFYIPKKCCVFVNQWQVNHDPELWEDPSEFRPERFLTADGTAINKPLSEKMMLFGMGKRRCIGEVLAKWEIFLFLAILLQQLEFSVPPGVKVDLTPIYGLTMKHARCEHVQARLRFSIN", "assay": "Inhibition of CYP1A2 (unknown origin)", "type": "ADME"}, "[3]": {"target": "Cytochrome P450 2C9 (Homo sapiens, UniProt P11712)", "sequence (P11712 whole entry)": "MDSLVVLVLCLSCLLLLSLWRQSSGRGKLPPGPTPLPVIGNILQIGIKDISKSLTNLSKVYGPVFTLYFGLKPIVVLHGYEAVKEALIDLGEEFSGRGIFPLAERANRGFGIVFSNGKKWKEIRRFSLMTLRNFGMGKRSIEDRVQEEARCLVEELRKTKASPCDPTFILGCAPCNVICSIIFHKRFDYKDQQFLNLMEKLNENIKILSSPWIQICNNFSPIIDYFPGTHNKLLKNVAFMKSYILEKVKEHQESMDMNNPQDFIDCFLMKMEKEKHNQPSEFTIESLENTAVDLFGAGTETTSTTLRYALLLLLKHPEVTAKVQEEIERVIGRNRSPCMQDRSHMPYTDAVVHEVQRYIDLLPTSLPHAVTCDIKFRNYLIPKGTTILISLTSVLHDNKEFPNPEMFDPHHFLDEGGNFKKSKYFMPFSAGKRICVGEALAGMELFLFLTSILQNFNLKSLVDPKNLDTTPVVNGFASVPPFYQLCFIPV", "assay": "Inhibition of CYP2C9 (unknown origin)", "type": "ADME"}, "[4]": {"target": "Cytochrome P450 2C19 (Homo sapiens, UniProt P33261)", "sequence (P33261 whole entry)": "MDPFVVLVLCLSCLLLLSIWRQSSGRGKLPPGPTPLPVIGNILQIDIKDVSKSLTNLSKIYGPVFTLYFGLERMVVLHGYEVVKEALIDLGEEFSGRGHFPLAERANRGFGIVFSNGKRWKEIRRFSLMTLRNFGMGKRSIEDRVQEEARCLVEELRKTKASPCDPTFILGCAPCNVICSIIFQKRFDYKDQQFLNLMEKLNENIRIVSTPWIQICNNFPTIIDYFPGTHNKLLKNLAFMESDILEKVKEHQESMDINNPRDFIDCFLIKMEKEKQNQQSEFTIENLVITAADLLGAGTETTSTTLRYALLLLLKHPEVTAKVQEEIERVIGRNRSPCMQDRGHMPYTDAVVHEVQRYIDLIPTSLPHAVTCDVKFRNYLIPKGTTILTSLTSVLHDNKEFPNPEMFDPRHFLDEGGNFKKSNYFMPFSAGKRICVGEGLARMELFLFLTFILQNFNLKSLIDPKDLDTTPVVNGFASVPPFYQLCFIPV", "assay": "Inhibition of CYP2C19 (unknown origin)", "type": "ADME"}, "[5]": {"target": "Cytochrome P450 2D6 (Homo sapiens, UniProt P10635)", "assay": "Inhibition of CYP2D6 (unknown origin)", "type": "ADME"}, "[6]": {"target": "Cytochrome P450 3A4 (Homo sapiens, UniProt P08684)", "sequence (P08684 whole entry)": "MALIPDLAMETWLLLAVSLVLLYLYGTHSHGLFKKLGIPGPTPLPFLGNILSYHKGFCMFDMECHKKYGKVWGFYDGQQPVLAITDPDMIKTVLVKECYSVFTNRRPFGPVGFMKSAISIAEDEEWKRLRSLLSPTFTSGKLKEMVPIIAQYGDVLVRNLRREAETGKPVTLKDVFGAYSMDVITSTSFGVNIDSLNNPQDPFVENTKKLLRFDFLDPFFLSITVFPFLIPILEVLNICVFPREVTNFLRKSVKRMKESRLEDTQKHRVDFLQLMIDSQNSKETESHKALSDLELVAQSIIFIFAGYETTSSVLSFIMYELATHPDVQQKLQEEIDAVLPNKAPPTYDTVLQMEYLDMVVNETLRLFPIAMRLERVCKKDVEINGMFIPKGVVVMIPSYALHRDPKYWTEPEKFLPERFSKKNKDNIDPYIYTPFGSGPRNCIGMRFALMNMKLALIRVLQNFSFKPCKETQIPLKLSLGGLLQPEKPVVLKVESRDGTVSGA", "assay": "Inhibition of CYP3A4-M (unknown origin)", "type": "ADME"}, "[7]": {"target": "Voltage-gated inwardly rectifying potassium channel KCNH2 (Homo sapiens, UniProt Q12809)", "assay": "Inhibition of hERG", "type": "toxicity"}, "[8]": {"target": "Serine/threonine-protein kinase mTOR (Homo sapiens, UniProt P42345)"}, "[9]": {"target": "Phosphatidylinositol 4,5-bisphosphate 3-kinase catalytic subunit beta isoform (Homo sapiens, UniProt P42338)", "sequence (P42338 whole entry, canonical isoform)": "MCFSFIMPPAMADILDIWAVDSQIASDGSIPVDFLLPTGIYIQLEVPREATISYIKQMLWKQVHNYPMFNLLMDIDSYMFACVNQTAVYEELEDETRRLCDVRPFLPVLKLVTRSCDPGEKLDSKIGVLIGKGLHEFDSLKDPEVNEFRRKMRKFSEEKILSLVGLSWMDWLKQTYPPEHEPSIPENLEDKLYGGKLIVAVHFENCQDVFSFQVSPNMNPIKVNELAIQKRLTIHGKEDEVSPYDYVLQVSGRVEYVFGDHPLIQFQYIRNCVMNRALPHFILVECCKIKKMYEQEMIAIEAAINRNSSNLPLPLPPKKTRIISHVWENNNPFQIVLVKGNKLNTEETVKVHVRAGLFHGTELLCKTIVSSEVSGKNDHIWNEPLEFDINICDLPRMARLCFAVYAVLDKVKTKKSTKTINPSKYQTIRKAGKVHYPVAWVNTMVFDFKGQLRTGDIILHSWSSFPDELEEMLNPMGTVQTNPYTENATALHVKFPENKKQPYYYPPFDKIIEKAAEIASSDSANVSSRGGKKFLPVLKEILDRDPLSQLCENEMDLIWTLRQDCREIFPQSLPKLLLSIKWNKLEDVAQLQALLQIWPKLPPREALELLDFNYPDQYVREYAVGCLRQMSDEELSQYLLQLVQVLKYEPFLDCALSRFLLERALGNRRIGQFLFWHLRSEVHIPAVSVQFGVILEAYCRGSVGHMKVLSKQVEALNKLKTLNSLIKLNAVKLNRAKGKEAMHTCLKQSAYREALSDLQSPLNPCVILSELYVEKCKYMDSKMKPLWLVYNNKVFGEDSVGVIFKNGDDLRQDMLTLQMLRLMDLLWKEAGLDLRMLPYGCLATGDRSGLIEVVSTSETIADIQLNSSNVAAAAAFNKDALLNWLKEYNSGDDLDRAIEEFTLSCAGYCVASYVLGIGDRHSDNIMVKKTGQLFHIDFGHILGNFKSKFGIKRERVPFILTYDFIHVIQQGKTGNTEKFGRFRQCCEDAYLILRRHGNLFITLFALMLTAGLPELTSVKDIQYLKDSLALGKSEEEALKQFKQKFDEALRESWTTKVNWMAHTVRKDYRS"}, "[10]": {"target": "T2, Phosphatidylinositol 4,5-bisphosphate 3-kinase catalytic subunit delta isoform (Homo sapiens, UniProt O00329)", "T2 sequence (O00329 whole entry)": "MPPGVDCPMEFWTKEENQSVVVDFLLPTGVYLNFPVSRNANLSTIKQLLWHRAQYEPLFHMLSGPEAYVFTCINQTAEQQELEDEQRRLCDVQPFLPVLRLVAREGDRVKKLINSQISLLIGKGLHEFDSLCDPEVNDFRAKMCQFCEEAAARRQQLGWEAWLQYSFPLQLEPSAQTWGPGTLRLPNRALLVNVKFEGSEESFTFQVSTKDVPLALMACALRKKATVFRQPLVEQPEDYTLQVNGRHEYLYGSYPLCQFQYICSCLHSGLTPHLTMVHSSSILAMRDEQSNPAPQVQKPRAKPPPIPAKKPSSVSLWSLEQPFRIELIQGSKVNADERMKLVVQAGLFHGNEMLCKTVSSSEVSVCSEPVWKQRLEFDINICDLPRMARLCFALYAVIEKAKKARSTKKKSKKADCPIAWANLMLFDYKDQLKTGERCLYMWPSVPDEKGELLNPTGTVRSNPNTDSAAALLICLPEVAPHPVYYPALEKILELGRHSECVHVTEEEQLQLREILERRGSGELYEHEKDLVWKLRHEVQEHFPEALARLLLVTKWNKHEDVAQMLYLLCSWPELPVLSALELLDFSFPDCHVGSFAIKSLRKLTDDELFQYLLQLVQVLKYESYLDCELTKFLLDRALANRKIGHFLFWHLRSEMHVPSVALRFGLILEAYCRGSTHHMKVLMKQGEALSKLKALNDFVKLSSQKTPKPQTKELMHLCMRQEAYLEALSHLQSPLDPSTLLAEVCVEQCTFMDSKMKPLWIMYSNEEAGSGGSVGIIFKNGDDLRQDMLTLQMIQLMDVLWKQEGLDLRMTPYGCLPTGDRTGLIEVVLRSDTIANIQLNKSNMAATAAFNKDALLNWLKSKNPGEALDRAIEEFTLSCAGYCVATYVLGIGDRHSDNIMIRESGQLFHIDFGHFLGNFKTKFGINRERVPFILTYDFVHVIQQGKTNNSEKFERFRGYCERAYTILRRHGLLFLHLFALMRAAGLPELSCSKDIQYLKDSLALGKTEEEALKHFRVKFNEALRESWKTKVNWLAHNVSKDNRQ"}, "[11]": {"target": "Phosphatidylinositol 4,5-bisphosphate 3-kinase catalytic subunit alpha isoform (Homo sapiens, UniProt P42336)", "sequence (P42336 whole entry, canonical isoform)": "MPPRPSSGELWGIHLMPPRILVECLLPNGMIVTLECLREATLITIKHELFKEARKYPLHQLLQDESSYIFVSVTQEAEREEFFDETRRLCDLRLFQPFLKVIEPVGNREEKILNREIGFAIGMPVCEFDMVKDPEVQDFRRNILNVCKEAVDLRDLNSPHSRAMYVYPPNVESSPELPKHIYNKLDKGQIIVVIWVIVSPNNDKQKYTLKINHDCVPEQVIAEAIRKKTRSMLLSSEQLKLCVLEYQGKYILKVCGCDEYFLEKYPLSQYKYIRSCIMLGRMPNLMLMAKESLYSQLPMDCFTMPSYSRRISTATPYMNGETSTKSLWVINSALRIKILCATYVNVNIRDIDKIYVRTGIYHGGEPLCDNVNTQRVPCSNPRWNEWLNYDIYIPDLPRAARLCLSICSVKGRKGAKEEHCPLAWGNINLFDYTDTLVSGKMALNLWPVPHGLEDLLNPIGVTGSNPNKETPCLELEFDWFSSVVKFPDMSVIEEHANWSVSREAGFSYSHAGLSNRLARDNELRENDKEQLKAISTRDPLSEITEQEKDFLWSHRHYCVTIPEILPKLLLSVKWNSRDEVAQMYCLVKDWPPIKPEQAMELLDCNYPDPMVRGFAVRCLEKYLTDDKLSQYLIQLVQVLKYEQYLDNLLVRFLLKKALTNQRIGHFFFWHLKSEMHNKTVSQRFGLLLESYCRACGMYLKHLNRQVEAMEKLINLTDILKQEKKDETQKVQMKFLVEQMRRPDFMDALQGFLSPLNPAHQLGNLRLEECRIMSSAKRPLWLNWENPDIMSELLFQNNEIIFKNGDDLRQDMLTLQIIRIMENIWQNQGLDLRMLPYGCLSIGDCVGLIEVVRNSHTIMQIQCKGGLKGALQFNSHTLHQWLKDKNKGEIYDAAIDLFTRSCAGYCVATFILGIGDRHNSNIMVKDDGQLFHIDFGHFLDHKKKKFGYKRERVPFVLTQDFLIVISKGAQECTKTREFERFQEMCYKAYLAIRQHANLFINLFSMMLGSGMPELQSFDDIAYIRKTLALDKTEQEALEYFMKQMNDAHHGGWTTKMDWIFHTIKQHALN", "assay": "Inhibition of PI3Kalpha (unknown origin) by ADP-glo plus luminescence assay"}, "[12]": {"tested_on": "MCF7", "assay": "Antiproliferative activity against human MCF7 cells assessed as inhibition of cell growth incubated for 48 hrs by CCK-8 assay", "type": "functional, cell-based", "details": "MCF7, 48 h"}, "[13]": {"tested_on": "MDA-MB-231", "assay": "Antiproliferative activity against human MDA-MB-231 cells assessed as inhibition of cell growth incubated for 48 hrs by CCK-8 assay", "type": "functional, cell-based", "details": "MDA-MB-231, 48 h"}, "[14]": {"tested_on": "HepG2", "assay": "Antiproliferative activity against human HepG2 cells assessed as inhibition of cell growth incubated for 48 hrs by CCK-8 assay", "type": "functional, cell-based", "details": "HepG2, 48 h"}, "[15]": {"tested_on": "HeLa", "assay": "Antiproliferative activity against human HeLa cells assessed as inhibition of cell growth incubated for 48 hrs by CCK-8 assay", "type": "functional, cell-based"}, "[16]": {"tested_on": "HCT-116", "assay": "Antiproliferative activity against human HCT-116 cells assessed as inhibition of cell growth incubated for 48 hrs by CCK-8 assay", "type": "functional, cell-based", "details": "HCT-116, 48 h"}, "[17]": {"tested_on": "CNE-2", "assay": "Antiproliferative activity against human CNE-2 cells assessed as inhibition of cell growth incubated for 48 hrs by CCK-8 assay", "type": "functional, cell-based", "details": "CNE-2, 48 h"}, "[18]": {"assay": "Antiproliferative activity against human L02 cells assessed as inhibition of cell growth incubated for 48 hrs by CCK-8 assay", "type": "toxicity, cell-based"}, "[19]": {"assay": "Selectivity index, ratio of IC50 for antiproliferative activity against human L02 cells assessed as inhibition of cell growth to IC50 for antiproliferative activity against human HepG2 cells assessed as inhibition of cell growth", "type": "toxicity, cell-based", "details": "L02 cells versus HepG2 cells, read-out: Ratio IC50"}}}
{"compound": "O=C(Nc1ccc(-c2nc(N3C4CCC3COC4)nc(N3C4CCC3COC4)n2)cc1)Nc1ccc2c(c1)COC2=O", "values": [{"measurement": "IC50", "setting": "[1]", "result": "> 10000", "unit": "nM"}, {"measurement": "IC50", "setting": "[2]", "result": "> 10000", "unit": "nM"}, {"measurement": "IC50", "setting": "[3]", "result": "> 10000", "unit": "nM"}, {"measurement": "IC50", "setting": "[4]", "result": "> 10000", "unit": "nM"}, {"measurement": "IC50", "setting": "[5]", "result": "> 10000", "unit": "nM"}, {"measurement": "IC50", "setting": "[6]", "result": "> 10000", "unit": "nM"}, {"measurement": "IC50", "setting": "[7]", "result": "> 30000", "unit": "nM"}, {"measurement": "IC50", "setting": "[8]", "result": 1.2, "unit": "nM"}, {"measurement": "IC50", "setting": "[9]", "result": "> 10000", "unit": "nM"}, {"measurement": "IC50", "setting": "[10]", "result": "> 10000", "unit": "nM"}]}
{"compound": "O=C(Nc1ccc(-c2nc(N3CCOCC3)nc(N3CCO[C@H](CO)C3)n2)cc1)Nc1ccc2c(c1)COC2=O", "values": [{"measurement": "IC50", "setting": "[1]", "result": 228, "unit": "nM"}, {"measurement": "IC50", "setting": "[9]", "result": 93, "unit": "nM"}, {"measurement": "IC50", "setting": "[10]", "result": 161, "unit": "nM"}]}
{"compound": "O=C(Nc1ccc(-c2nc(N3CCOCC3)nc(N3CCOCC3)n2)cc1)Nc1ccc2c(c1)COC2=O", "values": [{"measurement": "IC50", "setting": "[1]", "result": 162, "unit": "nM"}, {"measurement": "IC50", "setting": "[9]", "result": 129, "unit": "nM"}, {"measurement": "IC50", "setting": "[10]", "result": 248, "unit": "nM"}]}
{"compound": "O=C(Nc1ccc(-c2nc(N3CCOCC3)nc(N3C4CCC3COC4)n2)cc1)Nc1ccc2c(c1)COC2=O", "values": [{"measurement": "IC50", "setting": "[11]", "result": 354, "unit": "nM"}, {"measurement": "IC50", "setting": "[1]", "result": 1940, "unit": "nM"}, {"measurement": "IC50", "setting": "[12]", "result": 890, "unit": "nM"}, {"measurement": "IC50", "setting": "[13]", "result": 4430, "unit": "nM"}, {"measurement": "IC50", "setting": "[14]", "result": 130, "unit": "nM"}, {"measurement": "IC50", "setting": "[15]", "result": 2150, "unit": "nM"}, {"measurement": "IC50", "setting": "[16]", "result": 732, "unit": "nM"}, {"measurement": "IC50", "setting": "[17]", "result": 230, "unit": "nM"}, {"measurement": "IC50 at 48 h", "setting": "[18]", "result": 4590, "unit": "nM"}, {"measurement": "selectivity ratio", "setting": "[19]", "result": 35.3}, {"measurement": "IC50", "setting": "[8]", "result": 1.7, "unit": "nM"}, {"measurement": "IC50", "setting": "[9]", "result": 782, "unit": "nM"}, {"measurement": "IC50", "setting": "[10]", "result": 1830, "unit": "nM"}]}
{"compound": "O=C(Nc1ccc(-c2nc(N3CCOCC3)nc(N3CC4CCC(C3)O4)n2)cc1)Nc1ccc2c(c1)COC2=O", "values": [{"measurement": "IC50", "setting": "[8]", "result": 4.6, "unit": "nM"}]}
{"compound": "CC1OC(=O)c2cc(NC(=O)Nc3ccc(-c4nc(N5CCOCC5)nc(N5CCOCC5)n4)cc3)ccc21", "note": "(stereo not given)", "values": [{"measurement": "IC50", "setting": "[11]", "result": 45.4, "unit": "nM"}, {"measurement": "IC50", "setting": "[8]", "result": 7.2, "unit": "nM"}]}
{"compound": "O=C(Nc1ccc(-c2nc(N3CCOCC3)nc(N3CCOCC3)n2)cc1)Nc1ccc2c(c1)CNC2=O", "values": [{"measurement": "IC50", "setting": "[1]", "result": 25.5, "unit": "nM"}, {"measurement": "IC50", "setting": "[9]", "result": 162, "unit": "nM"}, {"measurement": "IC50", "setting": "[10]", "result": 98.3, "unit": "nM"}]}
